≈ marks a conversion by molar mass, not a printed value.
What was measured:
S. aureus ATCC 29213 [1] = assay: Disc diffusion assay (DDA), also supplemented; conditions: single compound, 200 μg per disc
P. acnes PRP-007 = assay: Disc diffusion assay (DDA), also supplemented; assay type: cell-based, Propionibacterium acnes; conditions: Table 12 series, 200 μg per disc
Procedure: (§6) The propionibacteria were cultured and maintained on Wilkins-Chalgren Anaerobe Medium (agar and broth) at pH 6.0; all cultures were incubated anaerobically at 37° C. for 72 hours.
(§7) A sterile paper disc was impregnated with a sample of the test compound in a suitable solvent and 30 minutes allowed for the solvents to evaporate (where possible). The disc was then placed on an agar plate onto which the test micro-organism had been inoculated. The plate was then incubated under the conditions described above, following which it was examined visually for signs of bacterial growth. […] The diameter of this zone of “inhibition” was measured using a ProtoCOL™ automated zone sizer (Synbiosis, Cambridge, UK).
(§8) For assays using Propionibacterium spp. strains the supplements used in the examples below were lipid (either Tween™ 80 or triolein, both at 1% v/v) and sodium chloride (100 mM).

P. acnes PRP-002 = assay: Disc diffusion assay (DDA), also supplemented; assay type: cell-based, Propionibacterium acnes; conditions: Table 12 series, 200 μg per disc
Procedure: as §6, §7, §8

P. acnes NCTC 737 [2] = assay: Disc diffusion assay (DDA), also supplemented; conditions: single compound, 200 μg per disc;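 note: paper disc carrying compound placed on inoculated Wilkins-Chalgren Anaerobe agar pH 6.0, with lipid or NaCl supplement where listed, anaerobic 37 °C for 72 h, inhibition zone diameter read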
P. acnes PRP-003 = assay: Disc diffusion assay (DDA), also supplemented; assay type: cell-based, Propionibacterium acnes; conditions: Table 12 series, 200 μg per disc
Procedure: as §6, §7, §8

P. acnes PRP-010 = assay: Disc diffusion assay (DDA), also supplemented; assay type: cell-based, Propionibacterium acnes; conditions: Table 12 series, 200 μg per disc
Procedure: as §6, §7, §8

P. acnes PRP-039 = assay: Disc diffusion assay (DDA), also supplemented; assay type: cell-based, Propionibacterium acnes; conditions: Table 12 series, 200 μg per disc
P. acnes PRP-008 = assay: Disc diffusion assay (DDA), also supplemented; assay type: cell-based, Propionibacterium acnes; conditions: Table 12 series, 200 μg per disc
Procedure: as §6, §7, §8

P. acnes PRP-004 = assay: Disc diffusion assay (DDA), also supplemented; assay type: cell-based, Propionibacterium acnes; conditions: Table 12 series, 200 μg per disc
Procedure: as §6, §7, §8

P. granulosum PRP-021 = assay: Disc diffusion assay (DDA), also supplemented; assay type: cell-based; conditions: Table 12 series, 200 μg per disc
Procedure: as §6, §7, §8

P. granulosum PRP-043 = assay: Disc diffusion assay (DDA), also supplemented; assay type: cell-based; conditions: Table 12 series, 200 μg per disc
Procedure: as §6, §7, §8

P. granulosum PRP-044 = assay: Disc diffusion assay (DDA), also supplemented; assay type: cell-based; conditions: Table 12 series, 200 μg per disc
Procedure: as §6, §7, §8

P. granulosum PRP-019 = assay: Disc diffusion assay (DDA), also supplemented; assay type: cell-based; conditions: Table 12 series, 200 μg per disc
Procedure: as §6, §7, §8

S. aureus ATCC 29213 [3] = assay: Minimum bactericidal concentration (MBC) assay; assay type: cell-based, Staphylococcus aureus; conditions: Staphylococcus aureus, ATCC29213; S. aureus ATCC 29213; duplicate; read-out: MBC
Procedure: (§1) (b) Minimum Bactericidal Concentration (MBC) Assay
(§2) Following incubation they were examined visually for bacterial growth.

P. acnes PRP-017 = assay: Disc diffusion assay (DDA), also supplemented; assay type: cell-based, Propionibacterium acnes; conditions: Table 12 series, 200 μg per disc
P. acnes PRP-102 = assay: Disc diffusion assay (DDA), also supplemented; assay type: cell-based, Propionibacterium acnes; conditions: Table 12 series, 200 μg per disc
Procedure: as §6, §7, §8

P. acnes PRP-023 = assay: Disc diffusion assay (DDA), also supplemented; assay type: cell-based, Propionibacterium acnes; conditions: Table 12 series, 200 μg per disc
Procedure: as §6, §7, §8

P. acnes PRP-046 = assay: Disc diffusion assay (DDA), also supplemented; assay type: cell-based, Propionibacterium acnes; conditions: Table 12 series, 200 μg per disc
P. granulosum NCTC 11865 = assay: Disc diffusion assay (DDA), also supplemented; assay type: cell-based; conditions: Table 12 series, 200 μg per disc
Procedure: as §6, §7, §8

P. granulosum PRP-055 = assay: Disc diffusion assay (DDA), also supplemented; assay type: cell-based; conditions: Table 12 series, 200 μg per disc
Procedure: as §6, §7, §8

P. acnes PRP-026 = assay: Disc diffusion assay (DDA), also supplemented; assay type: cell-based, Propionibacterium acnes; conditions: Table 12 series, 200 μg per disc
Procedure: as §6, §7, §8

P. acnes PRP-101 = assay: Disc diffusion assay (DDA), also supplemented; assay type: cell-based, Propionibacterium acnes; conditions: Table 12 series, 200 μg per disc
Procedure: as §6, §7, §8

P. granulosum PRP-005 = assay: Disc diffusion assay (DDA), also supplemented; assay type: cell-based; conditions: Table 12 series, 200 μg per disc
Procedure: as §6, §7, §8

P. granulosum PRP-006 = assay: Disc diffusion assay (DDA), also supplemented; assay type: cell-based; conditions: Table 12 series, 200 μg per disc
Procedure: as §6, §7, §8

P. acnes NCTC 737 [4] = assay: Minimum inhibitory concentration (MIC) assay; assay type: cell-based, Propionibacterium acnes; conditions: P. acnes NCTC 737
From the text: (§3) (a) Minimum Inhibitory Concentration (MIC) Assay
(§4) The culture media were as described above.
(§5) The assays included both negative (culture medium with no micro-organisms) and positive (culture medium plus diluting solvent plus micro-organism) controls.

P. acnes PRP-068 = assay: Disc diffusion assay (DDA), also supplemented; assay type: cell-based, Propionibacterium acnes; conditions: Table 12 series, 200 μg per disc
Procedure: as §6, §7, §8

S. aureus ATCC 29213 [5] = assay: Minimum inhibitory concentration (MIC) assay; assay type: cell-based, Staphylococcus aureus; conditions: S. aureus ATCC 29213
From the text: as §3, §4, §5

P. acnes PRP-053 = assay: Disc diffusion assay (DDA), also supplemented; assay type: cell-based, Propionibacterium acnes; conditions: Table 12 series, 200 μg per disc
Procedure: as §6, §7, §8

P. acnes NCTC 737 [6] = assay: Minimum bactericidal concentration (MBC) assay; assay type: cell-based, Propionibacterium acnes; conditions: Cutibacterium acnes, NCTC737; P. acnes NCTC 737; duplicate; read-out: MBC
Procedure: as §1, §2

P. acnes PRP-059 = assay: Disc diffusion assay (DDA), also supplemented; assay type: cell-based, Propionibacterium acnes; conditions: Table 12 series, 200 μg per disc
Procedure: as §6, §7, §8

[7] = system: panel of different staphylococcal strains; conditions: compound alone; also under supplemented conditions
Procedure: The activity of the salt was also determined against a panel of different staphylococcal strains, including some with known antibiotic resistance. MIC, MBC and DDA assays were carried out as described above for each of the strains, including determining the effect of the presence of salt and serum.
For DDA experiments 200 μg of the test compound was added per disc. DMSO was used as the diluting solvent. All experiments were performed in triplicate.

[8] = system: panel of different propionibacterium strains; assay: MIC by agar dilution and (S)DDA, whole panel; assay type: cell-based, Propionibacterium spp; conditions: compound alone; also under supplemented conditions
Procedure: For (S)DDA experiments 200 μg of each test compound was added per disc. […] MIC experiments were performed in duplicate, DDA experiments as single replicates only. SDDA experiments were conducted in triplicate.
The activity of the salt (MIC by agar dilution and DDA) was also determined against a panel of different propionibacterium strains. Supplemented DDA experiments were also carried out. […] DMSO was used as the diluting solvent. MIC experiments were performed in duplicate and DDA experiments as single replicates only.

[9] = system: Staphylococcus haemolyticus ATCC 29970; conditions: triplicate
Procedure: The staphylococci were cultured and maintained on Mueller-Hinton Medium (agar and broth) at pH 7.2; cultures were incubated aerobically at 37° C. for 19-20 hours.
This is a standard international method for quantitatively assessing the antimicrobial activity of a compound in a liquid medium. The method used a sterile 96-well microtitre plate, capable of holding about 200 μl of liquid per well. […] The culture media were as described above.
The wells were inoculated with a liquid suspension of freshly grown micro-organism and incubated under the conditions described above. After incubation, the microtitre plate was examined visually (with the aid of a light box) for cloudiness in each well, which would indicate microbial growth. The MIC value was recorded as the lowest concentration of test compound required to inhibit microbial growth, ie, the lowest concentration for which the liquid in the well remained clear.

[10] = zone of inhibition diameter, unsupplemented

In the case of `CC(C)(C)c1cc(O)ccc1O` [TBHQ, t-butylhydroquinone], the “SS (S)DDA” value (S. aureus ATCC 29213 [1]; salt and serum supplements) is reported as 43.68 (±1.02) mm, the “(S)DDA” value (S. aureus ATCC 29213 [1]; [10]) is reported as 40.42 (±0.89) mm and the DDA (P. acnes PRP-007) is reported as 8.78 mm. For the same compound, the DDA (P. acnes PRP-002) was 10.56 mm, the “SL (S)DDA” value (P. acnes NCTC 737 [2]; salt and lipid (1% (v/v) Tween 80) supplements) was 0.0 mm and the “(S)DDA” value (P. acnes NCTC 737 [2]; [10]) was 12.20 (±1.13) mm. For the same compound, the DDA (P. acnes PRP-003) was 18.61 mm, the DDA (P. acnes PRP-010) was 8.68 mm and the DDA (P. acnes PRP-039) was 17.04 mm. The DDA (P. acnes PRP-008) was 13.90 mm, the DDA (P. acnes PRP-004) was 13.80 mm and the DDA (P. granulosum PRP-021) was 8.57 mm. It also gave a DDA (P. granulosum PRP-043) of 10.77 mm, a DDA (P. granulosum PRP-044) of 0.00 mm and a DDA (P. granulosum PRP-019) of 0.00 mm. For the same compound, the MBC (S. aureus ATCC 29213 [3]) was 7.8 mg/L (≈ 46.9 µM), the DDA (P. acnes PRP-017) was 9.93 mm and the DDA (P. acnes PRP-102) was 9.10 mm. It also gave a DDA (P. acnes PRP-023) of 11.92 mm, a DDA (P. acnes PRP-046) of 14.22 mm and a DDA (P. granulosum NCTC 11865) of 10.45 mm. For the same compound, the DDA (P. granulosum PRP-055) was 10.04 mm, the DDA (P. acnes PRP-026) was 11.29 mm and the DDA (P. acnes PRP-101) was 14.01 mm. It also gave a DDA (P. granulosum PRP-005) of 15.05 mm, a DDA (P. granulosum PRP-006) of 9.93 mm and an MIC (P. acnes NCTC 737 [4]; Cutibacterium acnes, NCTC737, liquid medium, duplicate, read-out: MIC) of 7.8 mg/L (≈ 46.9 µM). For the same compound, the MIC/MBC ratio (P. acnes NCTC 737 [4]) was 1, the DDA (P. acnes PRP-068) was 12.55 mm and the MIC/MBC ratio (S. aureus ATCC 29213 [5]) was 0.5. For the same compound, the DDA (P. acnes PRP-053) was 9.93 mm, the MBC (P. acnes NCTC 737 [6]) was 7.8 mg/L (≈ 46.9 µM) and the DDA (P. acnes PRP-059) was 10.87 mm.

For `Oc1cccc2cccnc12.[Cu+2]` [8-hydroxyquinoline copper (II) salt], the “activity against staphylococcal strains (in words)” value [7] was “high activity”, the “activity against propionibacterium strains tested (in words)” value [8] was “high activity” and the “Cu-8HQ MIC” value [9] was 7.8 mg/L.

Reference: patent US20090246292A1, “ANTIMICROBIAL FORMULATIONS COMPRISING A QUINONE AND A COPPER SALT” (priority 2006, published 2009)
